Key:
[1] = Sustained drug release from PLC films / sandwich constructions; type: physicochemical
rabbit eyes = conditions: in vivo
Description: We obtained approval from the SingHealth Institute Animal Care and Use Committee (IACUC Singhealth Approval Number 2009/SHS/478) and all procedures were performed in accordance with the ARVO Statement for the Use of Animals in Ophthalmic and Vision Research. Nine New Zealand white rabbits (18 eyes) were used aged 4-6 months old with a weight range of 2-2.5 kg each. Each rabbit was anesthetized with intraperitoneal injection of ketamine hydrochloride (35-50 mg/kg) and Xylazil (5-10 mg/kg). After the animal had been adequately anaesthetized, the eye was cleaned with povidone-iodine (10%) and draped with sterile cloth. […]
Visual inspection of the operated eyes was conducted daily following surgery. […] All clinical and ocular observations were recorded on a chart. The test animals were also monitored for any gross changes such as eye discharge, squinting and, ocular discomfort. […]
Anterior segment photographs and anterior segment optical coherence tomography (AS-OCT, Visante OCT, Carl Zeiss Meditec Inc., Germany) of the implanted eyes was performed at monthly intervals. […] The site of conjunctival elevation from the microfilm was determined by the location of a light reflex over the conjunctiva during image acquisition. In cases where the light reflex was absent, the observer manually assessed the surface of the microfilm to select a radius that contained elevation. […]

CCCC(CCC)C(=O)O [valproic acid]
Duration of controlled release ([1]; 1% and 2% sandwich constructions (multi-layered implant)): 20 days

Poly(d,l-lactide-co-e-caprolactone) [PLC70/30]
mean increase in vascularity grade (rabbit eyes): 15±0.6% | mean percent increase in ocular score (rabbit eyes): 15±0.6%

C[C@]12C=CC(=O)C=C1CC[C@@H]1[C@@H]2[C@@H](O)C[C@@]2(C)[C@H]1CC[C@]2(O)C(=O)CO [Prednisolone]
Duration of controlled release ([1]; from PLC (70/30 copolymer of PLA and PCL)): 100 days

CC(C)OC(=O)CCC/C=C\C[C@@H]1[C@@H](CC[C@@H](O)CCc2ccccc2)[C@H](O)C[C@@H]1O [Latanoprost]
Duration of delivery ([1]; from PLC films): 10 days
